# Measurements reported in US20250152580A1, “METHODS FOR TREATING IMMUNE DISEASES” (Ascentage Pharma (Suzhou) co., Ltd., priority 2022, published 2025).
# Entries after “also recorded” stand apart in the source; their conditions may differ.
# Assays:
# Format in all cases: in vivo
# [1] = system: IMQ induced psoriasis model; test: IMQ induced psoriasis model in Balb/c mice; details: Cpd. 4 100 mg/kg po qd day 0-6
# Source text: Imiquimod (IMQ) is a ligand for TLRs (Toll-like receptors) of immune cells (including macrophages, monocytes and plasmacytoid dendritic cells), and therefore contributes to strong activation of the immune system.
# Female Balb/c mice (7-8 weeks old) were obtained from B&K Universal Animal Co. Ltd. Animals were housed and handled in a temperature-controlled environment with a 12-h light/12-h dark cycle. A total of 36 mice were assigned to 4 groups by randomization based on body weight (6 mice in normal control group and 10 mice in other 3 groups).
# At the beginning of the study on day 0, five groups were administered a daily topical dose of 80 mg of a cream preparation containing 5% IMQ on their hair-free backs to establish a model of IMQ-induced psoriasis for seven consecutive days. The G1 normal control group received appropriate vaseline.
# Mice in Group 1 and Group 2 were treated with vehicle for 7 days (po, qd, from day 0 to day 6). Mice in Group 3 were treated with 100 mg/kg Cpd. 4 for 7 days (po, qd, from day 0 to day 6). Mice in Group 4 were treated with 30 mg/kg tofacitinib for 7 days (po, bid, from day 0 to day 6). The protocols and procedures involving the care and use of animals were approved by the Institutional Animal Care and Use Committee (IACUC) at KCI (Suzhou, China).
# The severity of skin inflammation was monitored and graded using a modified human scoring system Psoriasis Area Severity Index (PASI). Scaling, thickness, and erythema were scored separately on a scale from 0 to 4:0, none; 1, slight; 2, moderate; 3, marked; and 4, very marked. The total score denotes severity of inflammation. Ear thickness of mice was measured every day from day 0 to day 7.
# Ear thickness of mice was measured every day from day 0 to day 7. […] Compared with G1 normal control group, after IMQ treatment, ear swelling was observed indicated by increased ear thickness in G2 group reaching the maximal ear thickness to 0.40±0.02 mm on day 7. Cpd.
# [2] = system: LPS inhalation induced lung neutrophils infiltration model; test: LPS inhalation induced neutrophils infiltration model in C57BL/6 mice; details: Cpd. 4 50 mg/kg oral each day, Cpd. X 50 mg/kg iv twice a week, Cpd. XI 12 mg/kg iv twice a week, week 4-10; compared with Vehicle
# Experimental: C57BL/6 mice (6-8 weeks old) were obtained from Shanghai LC Laboratory Animal Co. Ltd. Animals, housed and handled in a temperature-controlled environment with a 12-h light/12-h dark cycle. A total of 60 female C57BL/6J mice will be modeled by atomization inhalation LPS 3 times a week for 10 weeks (adjustments may be made according to animal health status). LPS concentration is at 0.7 mg/mL. On each day of challenge, animals in G1 will receive aerosol inhalation of PBS and intravenous injection of Vehicle; animals in G2 will receive aerosol inhalation of LPS and intravenous injection of Vehicle; animals in G3 will be given aerosol inhalation of LPS and intravenous injection of 50 mg/kg Cpd. X twice a week (D1/4) from week 4-10; animals in G4 will be given aerosol inhalation of LPS and intravenous injection of 12 mg/kg Cpd.XI twice a week (D1/4) from week 4-10; animals in G5 will be given aerosol inhalation of LPS and oral administration of 50 mg/kg Cpd. 4 each day from week 4-10; animals in G6 will be given aerosol inhalation of LPS and oral administration of dexamethasone 1 hour before each challenge. Lungs will be gently lavaged via the tracheal cannula with 0.8 mL of PBS containing 1% BSA and 0.6 mM EDTA 48 hr after the last LPS exposure. The procedure will be repeated twice with 0.8 mL of PBS containing 1% BSA and 0.6 mM EDTA. The bronchoalveolar lavage fluid (BALF) will be centrifuged at 300×g for 5 min at 4° C., the cell pellet will be resuspended in 1.5 mL PBS. Total numbers of neutrophils in BALF will be counted using a hemocytometer.
# OXA induced DTH model = test: OXA induced delayed type hypersensitivity (DTH) model in Balb/c mice
# Source text: A delayed-type hypersensitivity (DTH) reaction is an expression of cell-mediated immunity and plays a major role in the pathology and chronicity of many inflammatory disorders. Delayed-type hypersensitivity (DTH) reactions can be induced by allergens, including oxazolone.
# Female Balb/c mice (6-8 weeks old) were obtained from Shanghai Jihui Experiment Animal Feeding Co. Ltd. Animals were housed and handled in a temperature-controlled environment with a 12-h light/12-h dark cycle. A total of 48 mice were assigned to 6 groups by randomization based on body weight.
# To induce DTH, all right ears of mice except the G1 sham control group were applied with oxazolone (OXA). Briefly, skin inflammation was induced by topical administration with 100 μL of 1.5% OXA dissolved in acetone/olive oil on day 1 and repeated 20 μL of 1% OXA on day 6. G1 sham control group was treated same volume of vehicles. Therapeutic group of 100 mg/kg Cpd. 4 (po, 0 h/6 h after challenge on day 6) or 0.05 mg/ear dexamethasone (topical, 1 h/6 h after challenge on day 6) were applied to the mice. […]
# Ear thickness were measured with a micrometer before challenge on day 6 and 24 h after oxazolone challenge on Day 7 and reported as the mean change in ear thickness. […]
structure (smiles),measurement,setting,value
"O=C(NS(=O)(=O)c1ccc(NC[C@H]2COCCO2)c([N+](=O)[O-])c1)c1ccc(N2CCN(CC3=C(c4ccc(Cl)cc4)CC4(CCC4)CC3)CC2)cc1Oc1cnc2[nH]ccc2c1 [Cpd. 4, (S)-N-((4-(((1,4-dioxan-2-yl)methyl)amino)-3-nitrophenyl)sulfonyl)-2-((1H-pyrrolo[2,3-b]pyridin-5-yl)oxy)-4-(4-((6-(4-chlorophenyl)spiro[3.5]non-6-en-7-yl)methyl)piperazin-1-yl)benzamide]",ear thickness,[1]; compared with Vehicle (0.40±0.02 mm day 7) and tofacitinib 30 mg/kg po bid,significantly reducing the ear thickness; also recorded: comparable to that of tofacitinib; also recorded: significantly reduced
same,PASI score (Psoriasis Area Severity Index),"[1]; tofacitinib 30 mg/kg po bid, compared with Vehicle",significantly reducing the clinical PASI score; also recorded: significantly reduced
same,BALF neutrophils (infiltration in lung),[2],significantly reducing the BALF neutrophils; also recorded: significantly reduced
same,increase of ear thickness (day 7 − day 6),"OXA induced DTH model; 100 mg/kg po 0 h/6 h after challenge on day 6, vehicle 0.24±0.01 mm",0.22±0.03 mm
same,increase of ear thickness (in words),"OXA induced DTH model; Cpd. 4 100 mg/kg po, dexamethasone 0.05 mg/ear topical 1 h/6 h after challenge on day 6",moderately reduced
